# Experimental data reported in ChEMBL document CHEMBL6182935, “Discovery of a Novel Silybin Derivative for the Treatment of Metabolic Dysfunction-Associated Steatohepatitis” (J Med Chem, 2025).
# The source made the active and inactive calls. The calls are words filed in the database; no cut-off is given here.
# Experiments:
# [1] = Solubility in ethyl acetate incubated for 10 mins; format: physicochemical
# [2] = Solubility in methanol incubated for 10 mins; format: physicochemical
# [3] = Solubility in […] incubated for 10 mins; format: physicochemical
# [4] = Solubility in water incubated for 10 mins; format: physicochemical
# [5] = Antioxidant activity assessed as clearing rate incubated for 30 mins under dark condition by DPPH free radical scavenging assay; format: functional
# [6] = Antioxidant activity assessed as inhibition of DPPH free radical scavenging activity incubated for 30 mins under dark condition; format: functional
# [7] = Antioxidant activity assessed as clearing rate incubated for 5 mins in presence of pyrogallol by superoxide anion scavenging assay; format: functional
# [8] = Antioxidant activity assessed as inhibition of superoxide anion scavenging activity incubated for 5 mins in presence of pyrogallol; format: functional
# [9] = Inhibition of lipid peroxidation in egg yolk (unknown origin) at 100 uM preheated with compound and FeSO4 for 15 mins followed by TCA/TBA addition measured after 15 mins by absorbance based assay relative to control; format: functional, tissue-based; design: scale not given: the % may be the effect or the level left; conditions: time 30.0 min
# [10] = Inhibition of lipid peroxidation in egg yolk (unknown origin) preheated with compound and FeSO4 for 15 mins followed by TCA/TBA addition measured after 15 mins by absorbance based assay; format: functional, tissue-based
# [11] = Toxicity in male Sprague-Dawley rat model of CCl4-induced ALI assessed as body weight change at 100 mg/kg, IG qd pretreated with compound for 7 days followed by CCl4 administration after 2 hrs post-compound treatment measured after 16 hrs post-CCl4 injection; format: organism-based; conditions: in vivo, po, 186 h
# [12] = Toxicity in male Sprague-Dawley rat model of CCl4-induced ALI assessed as animal growth at 100 mg/kg, IG qd pretreated with compound for 7 days followed by CCl4 administration after 2 hrs post-compound treatment measured after 16 hrs post-CCl4 injection; format: organism-based; conditions: in vivo, po, 186 h
# [13] = test system: Rattus norvegicus; assay: (§1) Hepatoprotective activity in male Sprague-Dawley rat model of CCl4-induced ALI assessed as reduction in yellowing of liver at 100 mg/kg, IG qd pretreated with compound for 7 days followed by CCl4 administration after 2 hrs post-compound treatment measured after 16 hrs post-CCl4 injection; format: functional, organism-based; conditions: time 186.0 hrs
# [14] = test system: Rattus norvegicus; assay: Hepatoprotective activity in male Sprague-Dawley rat model of CCl4-induced ALI assessed as reduction in dullness of liver margin at 100 mg/kg, IG qd pretreated with compound for 7 days followed by CCl4 administration after 2 hrs post-compound treatment measured after 16 hrs post-CCl4 injection; format: functional, organism-based; conditions: time 186.0 hrs
# [15] = test system: Rattus norvegicus; assay: (§2) Hepatoprotective activity in male Sprague-Dawley rat model of CCl4-induced ALI assessed as reduction in white granular fat in liver at 100 mg/kg, IG qd pretreated with compound for 7 days followed by CCl4 administration after 2 hrs post-compound treatment measured after 16 hrs post-CCl4 injection; format: functional, organism-based; conditions: time 186.0 hrs
# [16] = test system: Rattus norvegicus; assay: Hepatoprotective activity in male Sprague-Dawley rat model of CCl4-induced ALI assessed as reduction in roughened surface in liver at 100 mg/kg, IG qd pretreated with compound for 7 days followed by CCl4 administration after 2 hrs post-compound treatment measured after 16 hrs post-CCl4 injection; format: functional, organism-based; conditions: time 186.0 hrs
# [17] = test system: Rattus norvegicus; assay: Hepatoprotective activity in male Sprague-Dawley rat model of CCl4-induced ALI assessed as restoration of serum AST level at 100 mg/kg, IG qd pretreated with compound for 7 days followed by CCl4 administration after 2 hrs post-compound treatment measured after 16 hrs post-CCl4 injection; format: functional, organism-based; conditions: time 186.0 hrs
# [18] = test system: Rattus norvegicus; assay: Hepatoprotective activity in male Sprague-Dawley rat model of CCl4-induced ALI assessed as restoration of serum ALT level at 100 mg/kg, IG qd pretreated with compound for 7 days followed by CCl4 administration after 2 hrs post-compound treatment measured after 16 hrs post-CCl4 injection; format: functional, organism-based; conditions: time 186.0 hrs
# [19] = test system: Rattus norvegicus; assay: Hepatoprotective activity in male Sprague-Dawley rat model of CCl4-induced ALI assessed as restoration of serum LDH level at 100 mg/kg, IG qd pretreated with compound for 7 days followed by CCl4 administration after 2 hrs post-compound treatment measured after 16 hrs post-CCl4 injection; format: functional, organism-based; conditions: time 186.0 hrs
# [20] = test system: Rattus norvegicus; assay: as §1, with “vacuoles” for “yellowing of liver”, “injection by H and E staining based analysis” for “injection”; format: functional, organism-based; conditions: time 186.0 hrs
# [21] = test system: Rattus norvegicus; assay: as §2, with “acute” for “white granular”, “deposition” for “in liver”, “injection by oil red O staining based analysis” for “injection”; format: functional, organism-based; conditions: time 186.0 hrs
# [22] = test system: Mus musculus; assay: Anti-MASH activity in HFD-fed CCl4-treated male C57BL/6 mouse assessed as reversal of hepatopancreas somatic indices at 150 mg/kg, po qd treated for 4 weeks; format: functional, organism-based
# [23] = test system: Mus musculus; assay: Anti-MASH activity in HFD-fed CCl4-treated male C57BL/6 mouse assessed as reduction in hepatocyte ballooning in liver at 150 mg/kg, po qd treated for 4 weeks by H and E/Oil red O staining based analysis; format: functional, organism-based
# [24] = test system: Mus musculus; assay: Anti-MASH activity in HFD-fed CCl4-treated male C57BL/6 mouse assessed as reduction in inflammation in liver at 150 mg/kg, po qd treated for 4 weeks by H and E/Oil red O staining based analysis; format: functional, organism-based
# [25] = test system: Mus musculus; assay: Anti-MASH activity in HFD-fed CCl4-treated male C57BL/6 mouse assessed as reduction in steatosis in liver at 150 mg/kg, po qd treated for 4 weeks by H and E/Oil red O staining based analysis; format: functional, organism-based
# [26] = test system: Mus musculus; assay: Anti-MASH activity in HFD-fed CCl4-treated male C57BL/6 mouse assessed as reduction in fat accumulation in liver at 150 mg/kg, po qd treated for 4 weeks by Oil red O staining based analysis; format: functional, organism-based
# [27] = AUC (0 to infinity) in overnight-fasted male Sprague-Dawley rat at 150 mg/kg, po measured up to 12 hrs by HPLC analysis; format: ADME, organism-based; conditions: in vivo
# [28] = test system: Mus musculus; assay: Anti-MASH activity in HFD-fed CCl4-treated male C57BL/6 mouse assessed as reduction in hepatic triglyceride level at 150 mg/kg, po qd treated for 4 weeks by ELISA; format: functional, organism-based
# [29] = test system: Mus musculus; assay: Anti-MASH activity in HFD-fed CCl4-treated male C57BL/6 mouse assessed as reduction in hepatic cholesterol level at 150 mg/kg, po qd treated for 4 weeks by ELISA; format: functional, organism-based
# [30] = MRT (0 to infinity) in overnight-fasted male Sprague-Dawley rat at 150 mg/kg, po measured up to 12 hrs by HPLC analysis; format: ADME, organism-based; conditions: in vivo
# [31] = Terminal half life in overnight-fasted male Sprague-Dawley rat at 150 mg/kg, po measured up to 12 hrs by HPLC analysis; format: ADME, organism-based; conditions: in vivo, read-out: beta t1/2 (converted)
# [32] = Tmax in overnight-fasted male Sprague-Dawley rat at 150 mg/kg, po measured up to 12 hrs by HPLC analysis; format: ADME, organism-based; conditions: in vivo
# [33] = Cmax in overnight-fasted male Sprague-Dawley rat at 150 mg/kg, po measured up to 12 hrs by HPLC analysis; format: ADME, organism-based; conditions: in vivo
# [34] = Apparent volume of distribution during terminal phase in overnight-fasted male Sprague-Dawley rat at 150 mg/kg, po measured up to 12 hrs by HPLC analysis; format: ADME, organism-based; conditions: in vivo, read-out: Vz/F
# [35] = Apparent clearance during terminal phase in overnight-fasted male Sprague-Dawley rat at 150 mg/kg, po measured up to 12 hrs by HPLC analysis; format: ADME, organism-based; conditions: in vivo, read-out: CLz/F (converted)
smiles,measurement,setting,value
COc1cc([C@@H]2Oc3cc([C@H]4Oc5cc(O)cc(O)c5C(=O)[C@@H]4O)ccc3OC2CO)ccc1O (stereo not given in full),solubility,[1],15.4 mg/mL
same,solubility,[2],10.6 mg/mL
same,solubility,[3],367 mg/mL
same,solubility at 10 min,[4],0.14 mg/mL
same,Activity,[5],47.2%
same,IC50,[6],> 200 µM
same,Activity,[7],34.6%
same,IC50,[8],> 200 µM
same,Activity,[9],39.6%
same,IC50,[10],> 100 µM
same,Activity,[11],Non-toxic
same,Activity,[12],Non-toxic
same,Activity,[13],Active
same,Activity,[14],Active
same,Activity,[15],Active
same,Activity,[16],Active
same,Activity,[17],Active
same,Activity,[18],Active
same,Activity,[19],Active
same,Activity,[20],Active
same,Activity,[21],Active
same,Activity,[22],Active
same,Activity,[23],Active
same,Activity,[24],Active
same,Activity,[25],Active
same,Activity,[26],Active
same,AUC(0-inf),[27],494 ng·h/mL
same,Activity,[28],Active
same,Activity,[29],Active
same,MRT inf,[30],5.22 h
same,half-life,[31],2.45 h
same,Tmax,[32],1.02 h
same,Cmax,[33],194 ng/mL
same,Vd/F,[34],447 L
same,CL/F,[35],1250 mL/min
COc1cc([C@@H]2Oc3cc([C@H]4Oc5cc(O)cc(O)c5C(=O)[C@@H]4O)ccc3OC2CSC(C)=O)ccc1O (stereo not given in full),solubility,[1],> 1000 mg/mL
same,solubility,[2],> 1000 mg/mL
same,solubility,[3],> 1000 mg/mL
same,solubility at 10 min,[4],0.3 mg/mL
same,Activity,[5],39.3%
same,IC50,[6],> 200 µM
same,Activity,[7],36.6%
same,IC50,[8],> 200 µM
same,Activity,[9],83.8%
same,IC50,[10],24 µM
"COc1cc(C2Oc3cc([C@H]4Oc5cc(O)cc(O)c5C(=O)[C@@H]4O)ccc3OC2CSSCC2Oc3ccc([C@H]4Oc5cc(O)cc(O)c5C(=O)[C@@H]4O)cc3O[C@H]2c2ccc(O)c(OC)c2)ccc1O (single isomer, unassigned)",solubility,[1],523 mg/mL
same,solubility,[2],246 mg/mL
same,solubility,[3],> 1000 mg/mL
same,solubility at 10 min,[4],0.19 mg/mL
same,Activity,[5],53.9%
same,IC50,[6],158 µM
same,Activity,[7],40.6%
same,IC50,[8],> 200 µM
same,Activity,[9],75.2%
same,IC50,[10],28.7 µM
